Values quoted from earlier work as cited in US20130053422A1, “Antimicrobial Compositions” (priority 2010, published 2013).

What was measured:
Details in all cases: after 5 to 60 minutes
Vaccinia virus = system: Vaccinia virus
bovine parainfluenzae 3 = system: bovine parainfluenzae 3
Herpes virus type 1 = system: Herpes virus type 1

CCCCCCCCCCCC(=O)N[C@@H](CCCN=C(N)N)C(=O)OCC [LAE, lauric arginate]
nearly complete reduction: reduction of Vaccinia virus (Vaccinia virus) | reduction of bovine parainfluenzae 3 (bovine parainfluenzae 3) | reduction of Herpes virus type 1 (Herpes virus type 1)
